Measurements as given in the supplement of paper PMC10307832.

How the values were obtained:
Test in all cases: relative viability (nuclei count vs DMSO), 5 days (fraction); higher = more cells survive
AZ628 + Dasatinib = compound: CC1=C(C=C(C=C1)NC(=O)C2=CC(=CC=C2)C(C)(C)C#N)NC3=CC4=C(C=C3)N=CN(C4=O)C [AZ628] + Cc1nc(Nc2ncc(C(=O)Nc3c(C)cccc3Cl)s2)cc(N2CCN(CCO)CC2)n1 [Dasatinib] (partner 0.075 µM)
Outline: (§1)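 The day after seeding in 1536-well plates, lung cancer cell lines were treated by pin tool with a single drug, or with a fixed anchor-drug dose together with five library-drug doses (not always all listed) in √10 steps. After 5 days, a combined fix-and-stain solution (final 0.05% Triton X-100, 1% formaldehyde, 1 ug/ml Hoechst) was added. Nuclei counted on 4× images gave relative viability as treated counts over vehicle counts, reported as the median of duplicate plates.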

[1] = compound: C[As](C)SC[C@H](NC(=O)CC[C@H](N)C(=O)O)C(=O)NCC(=O)O [Darinaparsin] + CC(C)C[C@H](NC(=O)[C@H](Cc1ccccc1)NC(=O)c1cnccn1)B(O)O [Bortezomib] (partner 0.002 µM)
Outline: as §1

QS11 + Crizotinib = compound: C1CC2=C(C1)C=C(C=C2)OC3=NC(=C4C(=N3)N(C=N4)CC5=CC=C(C=C5)C6=CC=CC=C6)N[C@@H](CC7=CC=CC=C7)CO [QS11] + C[C@@H](Oc1cc(-c2cnn(C3CCNCC3)c2)cnc1N)c1c(Cl)ccc(F)c1Cl [Crizotinib] (partner 1 µM)
Outline: as §1

QS11 + Phenformin = compound: C1CC2=C(C1)C=C(C=C2)OC3=NC(=C4C(=N3)N(C=N4)CC5=CC=C(C=C5)C6=CC=CC=C6)N[C@@H](CC7=CC=CC=C7)CO [QS11] + N=C(N)NC(=N)NCCc1ccccc1 [Phenformin] (partner 250 µM)
Outline: as §1

Cell Line	relative viability (AZ628 + Dasatinib; first compound 0.08 µM)	relative viability (AZ628 + Dasatinib; first compound 0.253 µM)	relative viability (AZ628 + Dasatinib; first compound 0.8 µM)	relative viability (AZ628 + Dasatinib; first compound 2.53 µM)	relative viability (AZ628 + Dasatinib; first compound 8 µM)	relative viability ([1]; first compound 0.08 µM)	relative viability ([1]; first compound 0.8 µM)	relative viability ([1]; first compound 2.53 µM)	relative viability ([1]; first compound 8 µM)	relative viability (QS11 + Crizotinib; first compound 0.08 µM)	relative viability (QS11 + Crizotinib; first compound 0.253 µM)	relative viability (QS11 + Crizotinib; first compound 0.8 µM)	relative viability (QS11 + Crizotinib; first compound 2.53 µM)	relative viability (QS11 + Crizotinib; first compound 8 µM)	relative viability (QS11 + Phenformin; first compound 0.08 µM)	relative viability (QS11 + Phenformin; first compound 0.253 µM)	relative viability (QS11 + Phenformin; first compound 0.8 µM)	relative viability (QS11 + Phenformin; first compound 2.53 µM)	relative viability (QS11 + Phenformin; first compound 8 µM)
NCI-H1437	0.415	0.242	0.275	0.43	0.39	0.562	0.558	0.468	0.584	0.99	1.04	0.862	0.747	0.744	0.302	0.225	0.285	0.334	0.283
NCI-H1563	0.477	0.436	0.469	0.487	0.475	0.831	0.862	0.828	0.93	0.836	0.937	0.925	0.86	0.814	0.661	0.682	0.723	0.637	0.624
NCI-H1650	0.319	0.366	0.318	0.296	0.249	0.216	0.193	0.193	0.195	0.994	0.843	0.868	0.986	0.894	0.374	0.472	0.376	0.474	0.391
NCI-H1651	0.517	0.384	0.408	0.392	0.535	1.05	1.05	0.917	1.12	0.888	0.95	0.79	0.903	0.899	0.377	0.384	0.305	0.374	0.343
NCI-H1666	0.812	0.733	0.669	0.665	0.668	0.916	0.882	0.978	0.847	0.995	0.808	0.668	0.52	0.432	0.556	0.519	0.55	0.479	0.398
NCI-H1734	0.424	0.552	0.525	0.511	0.349	1.37	0.937	0.854	0.986	0.65	0.656	0.658	0.555	0.619	0.391	0.397	0.389	0.374	0.375
NCI-H1755	0.459	0.39	0.417	0.381	0.326	1.04	0.94	0.915	1.18	0.889	0.826	0.509	0.677	0.691	0.594	0.649	0.502	0.533	0.51
NCI-H1792	0.901	0.595	0.513	0.584	0.299	1.69	1.03	0.652	1.03		1.06	0.662	1.11	1.33	0.219		0.338	0.268	0.178
NCI-H1915	0.327	0.293	0.249	0.199	0.139	1.08	1.03	0.844	1.25	0.926	1.13		0.824	0.815	0.362	0.369		0.376	0.348
NCI-H1975	0.351	0.292	0.283	0.248	0.174	0.444	0.4	0.291	0.306	1.08	1.03	0.853	1.16	0.817	0.419	0.406	0.429	0.493	0.515
NCI-H1993	0.556	0.546	0.613	0.578	0.553	1.24	0.875	1.31	1.04	0.974	0.756	0.868	0.827	0.771	0.522	0.583	0.528	0.615	0.52
NCI-H2009	0.202	0.258	0.182	0.173	0.184	1.1	1.06	0.963	0.845	1.02	1.09	0.882	1.03	0.791	0.466	0.498	0.459	0.419	0.416
NCI-H2023	0.617	0.647	0.444	0.436	0.396	1.36	0.956	0.892	1.06	0.774	0.537	0.586	0.641	0.648	0.304	0.473	0.411	0.457	0.459
NCI-H2085	0.255	0.274	0.252	0.239	0.237	0.987	0.996	1.07	1.16	0.907	0.95	0.84	0.776	0.802	0.707	0.681	0.671	0.726	0.844
NCI-H2087	0.565	0.32	0.226	0.237	0.154	1.02	0.944	0.948	1.13	0.849	0.794	0.65	0.652	0.573	0.479	0.46		0.521	0.657
NCI-H2126	0.584	0.565	0.492	0.491	0.415	1.16	1.2	0.892	1.19	1.05	1	0.855	0.897	0.758	0.542	0.505	0.552	0.561	0.541
NCI-H2228	0.479	0.531	0.47	0.432	0.396	1.63	1.12	0.975	1.13	0.425	0.467	0.457	0.356	0.41	0.259	0.325	0.407	0.479	0.452
